From doi:10.1101/2023.11.24.568596v1 (biorxiv, 2023)
Blank lines part the entries; values can stand above or below the compound they belong to.

Assays:
Details in all cases: binder
Haspin = target: T1, Haspin (Homo sapiens, UniProt Q8TF76)
T1 sequence (Q8TF76 1-798): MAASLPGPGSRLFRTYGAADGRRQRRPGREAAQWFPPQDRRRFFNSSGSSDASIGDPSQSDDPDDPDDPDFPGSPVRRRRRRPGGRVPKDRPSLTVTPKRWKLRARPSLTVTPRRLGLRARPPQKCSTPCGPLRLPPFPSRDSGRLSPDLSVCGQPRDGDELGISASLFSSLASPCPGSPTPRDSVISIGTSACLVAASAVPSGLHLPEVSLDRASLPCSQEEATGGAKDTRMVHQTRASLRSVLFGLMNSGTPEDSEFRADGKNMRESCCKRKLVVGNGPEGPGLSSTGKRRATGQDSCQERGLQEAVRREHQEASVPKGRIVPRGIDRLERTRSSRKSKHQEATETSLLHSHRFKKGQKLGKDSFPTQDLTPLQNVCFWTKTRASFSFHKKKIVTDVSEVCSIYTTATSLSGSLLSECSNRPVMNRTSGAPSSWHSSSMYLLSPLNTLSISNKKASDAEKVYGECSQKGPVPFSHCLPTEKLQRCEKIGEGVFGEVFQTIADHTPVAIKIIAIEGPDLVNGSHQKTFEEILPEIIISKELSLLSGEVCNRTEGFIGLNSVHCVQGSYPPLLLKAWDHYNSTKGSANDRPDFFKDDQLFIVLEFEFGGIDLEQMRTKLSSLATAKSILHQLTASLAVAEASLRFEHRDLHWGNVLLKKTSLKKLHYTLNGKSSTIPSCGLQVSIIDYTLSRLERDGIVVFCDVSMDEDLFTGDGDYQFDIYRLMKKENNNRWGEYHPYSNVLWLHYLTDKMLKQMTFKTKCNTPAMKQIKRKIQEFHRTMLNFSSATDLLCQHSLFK

PAK1 = PAK1 (Homo sapiens, UniProt Q13153)
PAK1, sequence (Q13153 whole entry): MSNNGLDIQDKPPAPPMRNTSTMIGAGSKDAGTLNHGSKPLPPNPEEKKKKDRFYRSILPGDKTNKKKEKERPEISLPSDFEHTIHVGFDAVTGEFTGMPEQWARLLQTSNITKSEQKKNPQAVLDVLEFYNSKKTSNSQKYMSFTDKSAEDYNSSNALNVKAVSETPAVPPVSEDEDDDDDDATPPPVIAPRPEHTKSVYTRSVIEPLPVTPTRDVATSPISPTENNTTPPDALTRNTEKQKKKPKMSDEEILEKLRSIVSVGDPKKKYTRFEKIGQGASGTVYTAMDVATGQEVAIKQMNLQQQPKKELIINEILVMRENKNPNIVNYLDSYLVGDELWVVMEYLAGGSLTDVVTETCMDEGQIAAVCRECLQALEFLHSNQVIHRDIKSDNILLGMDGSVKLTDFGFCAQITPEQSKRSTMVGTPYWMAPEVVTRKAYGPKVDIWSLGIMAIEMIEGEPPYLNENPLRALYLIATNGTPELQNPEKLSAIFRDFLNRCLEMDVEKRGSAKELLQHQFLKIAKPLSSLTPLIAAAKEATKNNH

CaMK2b = CaMK2b (Homo sapiens, UniProt Q13554)
CaMK2b, sequence (Q13554 whole entry): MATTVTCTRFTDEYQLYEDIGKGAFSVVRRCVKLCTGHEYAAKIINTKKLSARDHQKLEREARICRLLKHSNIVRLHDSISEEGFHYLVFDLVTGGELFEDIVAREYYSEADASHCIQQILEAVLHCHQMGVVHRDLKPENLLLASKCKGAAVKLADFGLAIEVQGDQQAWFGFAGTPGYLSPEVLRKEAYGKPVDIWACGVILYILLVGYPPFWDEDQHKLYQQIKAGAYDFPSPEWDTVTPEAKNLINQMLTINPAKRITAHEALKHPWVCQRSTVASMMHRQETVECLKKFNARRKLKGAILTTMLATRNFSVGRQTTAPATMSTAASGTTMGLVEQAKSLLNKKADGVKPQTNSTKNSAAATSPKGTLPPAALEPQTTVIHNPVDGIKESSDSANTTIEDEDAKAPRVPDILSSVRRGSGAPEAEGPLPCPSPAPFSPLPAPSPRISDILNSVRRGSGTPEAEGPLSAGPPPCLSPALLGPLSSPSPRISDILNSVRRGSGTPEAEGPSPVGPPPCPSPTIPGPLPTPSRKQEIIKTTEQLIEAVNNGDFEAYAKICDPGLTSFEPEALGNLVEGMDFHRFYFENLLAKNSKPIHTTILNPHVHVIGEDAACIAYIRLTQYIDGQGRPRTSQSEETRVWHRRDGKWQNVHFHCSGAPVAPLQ

PCTAIRE1 = PCTAIRE1 (Homo sapiens, UniProt Q00536)
PCTAIRE1, sequence (Q00536 whole entry): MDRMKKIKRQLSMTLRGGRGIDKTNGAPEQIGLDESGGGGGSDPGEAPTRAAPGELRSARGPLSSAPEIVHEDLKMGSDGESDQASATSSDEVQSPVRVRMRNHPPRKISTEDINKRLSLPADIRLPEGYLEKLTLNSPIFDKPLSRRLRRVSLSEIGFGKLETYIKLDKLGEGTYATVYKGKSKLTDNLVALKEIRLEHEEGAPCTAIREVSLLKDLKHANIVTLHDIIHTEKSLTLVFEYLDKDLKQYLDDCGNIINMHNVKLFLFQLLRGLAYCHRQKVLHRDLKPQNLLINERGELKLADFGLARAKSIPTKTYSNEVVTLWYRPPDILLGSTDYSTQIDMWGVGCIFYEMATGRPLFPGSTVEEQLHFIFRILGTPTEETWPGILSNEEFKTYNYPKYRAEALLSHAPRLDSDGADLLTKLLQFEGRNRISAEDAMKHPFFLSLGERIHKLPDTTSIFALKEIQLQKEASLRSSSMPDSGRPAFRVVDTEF

GSK3B = GSK3B (Homo sapiens, UniProt P49841)
GSK3B, sequence (P49841 whole entry): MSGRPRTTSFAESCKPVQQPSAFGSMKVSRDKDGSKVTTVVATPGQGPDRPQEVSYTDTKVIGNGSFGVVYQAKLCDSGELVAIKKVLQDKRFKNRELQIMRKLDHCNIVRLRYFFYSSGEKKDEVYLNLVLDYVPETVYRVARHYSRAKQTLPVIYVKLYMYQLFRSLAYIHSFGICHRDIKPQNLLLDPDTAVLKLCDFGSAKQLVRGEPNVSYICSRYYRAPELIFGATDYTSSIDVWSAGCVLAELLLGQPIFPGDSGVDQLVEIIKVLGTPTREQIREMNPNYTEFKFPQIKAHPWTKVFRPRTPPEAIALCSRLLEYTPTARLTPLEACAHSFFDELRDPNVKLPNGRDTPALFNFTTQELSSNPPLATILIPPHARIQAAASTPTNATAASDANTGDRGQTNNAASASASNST

NQO2A = target: T2, NQO2A (Homo sapiens, UniProt P16083)
T2 sequence (P16083 1-231): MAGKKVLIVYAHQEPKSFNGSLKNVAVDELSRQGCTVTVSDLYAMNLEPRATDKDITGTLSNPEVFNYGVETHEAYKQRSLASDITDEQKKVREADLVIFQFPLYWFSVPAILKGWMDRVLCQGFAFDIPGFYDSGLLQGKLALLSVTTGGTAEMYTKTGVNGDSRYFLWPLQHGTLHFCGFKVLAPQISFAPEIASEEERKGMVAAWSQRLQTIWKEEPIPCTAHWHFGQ

BRD4 = BRD4 (Homo sapiens, UniProt O60885)
Erk2 = Erk2 (Homo sapiens, UniProt P28482)
Erk2, sequence (P28482 whole entry): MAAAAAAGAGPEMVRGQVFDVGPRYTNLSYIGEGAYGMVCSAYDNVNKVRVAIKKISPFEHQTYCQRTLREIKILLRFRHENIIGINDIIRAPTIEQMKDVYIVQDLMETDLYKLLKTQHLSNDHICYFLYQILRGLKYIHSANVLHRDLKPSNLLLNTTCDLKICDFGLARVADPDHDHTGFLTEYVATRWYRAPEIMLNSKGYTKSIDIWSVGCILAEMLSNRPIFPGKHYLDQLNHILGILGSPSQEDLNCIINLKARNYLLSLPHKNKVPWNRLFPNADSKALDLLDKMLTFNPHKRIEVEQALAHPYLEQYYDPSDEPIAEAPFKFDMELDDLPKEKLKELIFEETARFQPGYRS

DYRK2 = target: T3, DYRK2 (Homo sapiens, UniProt Q92630)
T3 sequence (Q92630 1-601): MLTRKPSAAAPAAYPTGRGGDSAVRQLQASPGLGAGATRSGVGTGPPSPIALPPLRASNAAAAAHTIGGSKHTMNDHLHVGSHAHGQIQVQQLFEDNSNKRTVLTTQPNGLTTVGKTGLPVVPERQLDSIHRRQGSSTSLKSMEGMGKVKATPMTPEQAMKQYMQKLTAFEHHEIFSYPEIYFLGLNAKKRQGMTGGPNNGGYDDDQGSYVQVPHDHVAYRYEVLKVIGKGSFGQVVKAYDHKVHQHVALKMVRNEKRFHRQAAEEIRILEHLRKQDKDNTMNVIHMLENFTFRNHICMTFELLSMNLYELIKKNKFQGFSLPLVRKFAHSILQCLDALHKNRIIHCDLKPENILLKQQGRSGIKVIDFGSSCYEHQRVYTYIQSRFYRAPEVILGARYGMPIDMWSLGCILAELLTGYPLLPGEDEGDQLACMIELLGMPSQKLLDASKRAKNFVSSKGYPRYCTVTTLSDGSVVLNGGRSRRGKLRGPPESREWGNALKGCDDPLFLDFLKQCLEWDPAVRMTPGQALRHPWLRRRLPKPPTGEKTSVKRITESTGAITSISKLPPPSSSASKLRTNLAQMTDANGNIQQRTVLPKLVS

CLK3 = CLK3 (Homo sapiens, UniProt P49761)
CLK3, sequence (P49761 whole entry): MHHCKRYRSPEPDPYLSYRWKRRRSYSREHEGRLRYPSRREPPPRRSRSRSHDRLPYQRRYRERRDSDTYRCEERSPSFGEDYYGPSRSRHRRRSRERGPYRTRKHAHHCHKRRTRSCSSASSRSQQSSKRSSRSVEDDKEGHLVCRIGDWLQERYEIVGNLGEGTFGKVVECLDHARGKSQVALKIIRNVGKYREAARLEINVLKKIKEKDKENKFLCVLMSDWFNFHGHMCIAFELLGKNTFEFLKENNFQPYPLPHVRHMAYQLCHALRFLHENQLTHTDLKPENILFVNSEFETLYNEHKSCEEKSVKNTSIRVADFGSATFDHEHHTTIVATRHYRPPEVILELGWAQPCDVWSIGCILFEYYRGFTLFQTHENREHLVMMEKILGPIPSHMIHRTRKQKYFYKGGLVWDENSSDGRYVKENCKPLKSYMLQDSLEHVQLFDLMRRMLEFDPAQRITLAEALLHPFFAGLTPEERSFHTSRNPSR

ΔTm 29 (Haspin): -1.2 °C
ΔTm 29 (PAK1): 7.1 °C
ΔTm 29 (CaMK2b): -0.5 °C
ΔTm 29 (PCTAIRE1): 2.5 °C
ΔTm 29 (GSK3B): 0.3 °C
ΔTm 29 (NQO2A): 0.3 °C
ΔTm 29 (BRD4): -2.2 °C
ΔTm 29 (Erk2): -0.4 °C
ΔTm 29 (DYRK2): -0.2 °C
ΔTm 29 (CLK3): 0.0 °C
SMILES: Cc1cccc(-c2ccc(-c3cc4cnc(NCCCN5CCNCC5)nc4n(CCCCN)c3=O)c(Cl)c2)n1 [compound 29, 8-(4-Aminobutyl)-6-(2-chloro-4-(6-methylpyridin-2-yl)phenyl)-2-((3-(piperazin-1-yl)propyl)amino)pyrido[2,3-d]pyrimidin-7(8H)-one]

ΔTm 30 (Haspin): 0.4 °C
ΔTm 30 (PAK1): 10.7 °C
ΔTm 30 (CaMK2b): 0.3 °C
ΔTm 30 (PCTAIRE1): 5.0 °C
ΔTm 30 (GSK3B): 1.9 °C
ΔTm 30 (NQO2A): -0.2 °C
ΔTm 30 (BRD4): -2.4 °C
ΔTm 30 (Erk2): 3.5 °C
ΔTm 30 (DYRK2): -1.1 °C
ΔTm 30 (CLK3): -0.2 °C
SMILES: Cc1cccc(-c2ccc(-c3cc4cnc(Nc5ccc(CCCO)cc5)nc4n(CCCCN)c3=O)c(Cl)c2)n1 [compound 30, 8-(4-Aminobutyl)-6-(2-chloro-4-(6-methylpyridin-2-yl)phenyl)-2-((4-(3-hydroxypropyl)phenyl)amino)pyrido[2,3-d]pyrimidin-7(8H)-one]

ΔTm 32 (Haspin): -1.5 °C
ΔTm 32 (PAK1): 10.4 °C
ΔTm 32 (CaMK2b): 0.3 °C
ΔTm 32 (PCTAIRE1): 4.8 °C
ΔTm 32 (GSK3B): 2.2 °C
ΔTm 32 (NQO2A): -0.2 °C
ΔTm 32 (BRD4): -2.7 °C
ΔTm 32 (Erk2): 1.9 °C
ΔTm 32 (DYRK2): -1.4 °C
ΔTm 32 (CLK3): 0.1 °C
SMILES: Cc1cccc(-c2ccc(-c3cc4cnc(Nc5ccc(C)c(O)c5)nc4n(CCCCN)c3=O)c(Cl)c2)n1 [compound 32, 8-(4-Aminobutyl)-6-(2-chloro-4-(6-methylpyridin-2-yl)phenyl)-2-((3-hydroxy-4-methylphenyl)amino)pyrido[2,3-d]pyrimidin-7(8H)-one]

Continued, compound first:

SMILES: Cc1cccc(-c2ccc(-c3cc4cnc(NCCCN5CCCC5=O)nc4n(CCCCN)c3=O)c(Cl)c2)n1 [compound 27, MR30]
ΔTm MR30 (27) (Haspin): -0.7 °C
ΔTm MR30 (27) (PAK1): 4.6 °C
ΔTm MR30 (27) (CaMK2b): -1.1 °C
ΔTm MR30 (27) (PCTAIRE1): 2.9 °C
ΔTm MR30 (27) (GSK3B): 1.9 °C
ΔTm MR30 (27) (NQO2A): 0.5 °C
ΔTm MR30 (27) (BRD4): -3.9 °C
ΔTm MR30 (27) (Erk2): 0.4 °C
ΔTm MR30 (27) (DYRK2): -0.4 °C
ΔTm MR30 (27) (CLK3): -0.3 °C

SMILES: Cc1cccc(-c2ccc(-c3cc4cnc(Nc5ccc(O)cc5)nc4n(CCCCN)c3=O)c(Cl)c2)n1 [compound 31, 8-(4-Aminobutyl)-6-(2-chloro-4-(6-methylpyridin-2-yl)phenyl)-2-((4-hydroxyphenyl)amino) pyrido[2,3-d]pyrimidin-7(8H)-one]
ΔTm 31 (Haspin): -0.4 °C
ΔTm 31 (PAK1): 10.6 °C
ΔTm 31 (CaMK2b): -0.4 °C
ΔTm 31 (PCTAIRE1): 5.0 °C
ΔTm 31 (GSK3B): 3.2 °C
ΔTm 31 (NQO2A): -0.3 °C
ΔTm 31 (BRD4): -1.6 °C
ΔTm 31 (Erk2): 1.3 °C
ΔTm 31 (DYRK2): -0.8 °C
ΔTm 31 (CLK3): -0.5 °C

SMILES: Cc1cccc(-c2ccc(-c3cc4cnc(Nc5cc(C(F)(F)F)ccc5C)nc4n(CCCCN)c3=O)c(Cl)c2)n1 [compound 28, 8-(4-Aminobutyl)-6-(2-chloro-4-(6-methylpyridin-2-yl)phenyl)-2-((2-methyl-5-(trifluoromethyl)phenyl)amino)pyrido[2,3-d]pyrimidin-7(8H)-one]
ΔTm 28 (Haspin): -1.3 °C
ΔTm 28 (PAK1): 6.0 °C
ΔTm 28 (CaMK2b): 0.7 °C
ΔTm 28 (PCTAIRE1): 1.1 °C
ΔTm 28 (GSK3B): 0.3 °C
ΔTm 28 (NQO2A): -0.7 °C
ΔTm 28 (BRD4): -3.7 °C
ΔTm 28 (Erk2): 0.7 °C
ΔTm 28 (DYRK2): -0.7 °C
ΔTm 28 (CLK3): 0.0 °C
